# Literature values, collected in US9938200B2, “Methods for improving bud break” (priority 2010, dated 2018).
# Tested on: vines
# Conditions: use over time
structure (smiles),measurement,value
N#CN [hydrogen cyanamide],lowering of the fruitability of vines,20-30 % per year
